ChEMBL document CHEMBL3407412, “Synthesis and bioevaluation of pyrazole-benzimidazolone hybrids as novel human 4-Hydroxyphenylpyruvate dioxygenase inhibitors” (Eur J Med Chem, 2015)

Each compound was assayed against 4-hydroxyphenylpyruvate dioxygenase (Homo sapiens, UniProt P32754) (assay: Inhibition of human recombinant His-tagged HPPD expressed in Escherichia coli BL21(DE3) by UV/visible plate reader analysis).
Chain of 4-hydroxyphenylpyruvate dioxygenase (P32754 whole entry): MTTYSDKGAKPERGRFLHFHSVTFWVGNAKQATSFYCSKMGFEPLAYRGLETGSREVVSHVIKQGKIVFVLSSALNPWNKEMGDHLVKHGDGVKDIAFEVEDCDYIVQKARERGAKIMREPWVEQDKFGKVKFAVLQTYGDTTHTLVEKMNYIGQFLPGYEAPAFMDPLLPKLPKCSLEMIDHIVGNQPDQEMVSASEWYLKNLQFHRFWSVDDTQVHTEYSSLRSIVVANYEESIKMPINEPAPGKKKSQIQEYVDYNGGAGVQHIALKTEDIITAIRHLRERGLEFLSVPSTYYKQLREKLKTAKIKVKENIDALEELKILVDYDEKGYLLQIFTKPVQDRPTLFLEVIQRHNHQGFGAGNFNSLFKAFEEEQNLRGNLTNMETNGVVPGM

| Compound | IC50 [µM] |
| --- | --- |
| CCCn1c(=O)n(CC)c2cc(C(=O)c3cnn(C)c3O)ccc21 | 0.039 |
| CCCCn1c(=O)n(C)c2ccc(C(=O)c3cnn(C)c3O)cc21 | 0.17 |
| Cn1ncc(C(=O)c2ccc3c(c2)n(C(C)(C)C)c(=O)n3C)c1O | 0.1 |
| Cc1ccc(-n2c(=O)n(C)c3ccc(C(=O)c4cnn(C)c4O)cc32)cc1 | 0.25 |
| Cc1nn(C)c(O)c1C(=O)c1ccc2c(c1)n(CC(C)C)c(=O)n2C | 2.71 |
| Cc1nn(C)c(O)c1C(=O)c1ccc2c(c1)n(Cc1ccccc1)c(=O)n2C | 0.67 |
